Positions count from the first letter of the chain named.
Legend:
[1] = target: T1, lysyl-oxydase d'aorte bovine (Bos taurus, UniProt P33072); test: Lysyl oxidase activity assay (tritium release from 3H elastin); type: biochemical; details: partially purified lysyl oxidase from fetal bovine aorta; 3H élastine substrate; 37°C; pH 8,0; read-out: concentration nécessaire pour inhiber 50% de l'activité de lysyl-oxydase
T1 construct: De l'aorte bovine foetale broyée est rincée par du tampon NaCI 0,12M; from tissue; host or cells: fetal bovine aorta
T1 sequence (P33072 170-418): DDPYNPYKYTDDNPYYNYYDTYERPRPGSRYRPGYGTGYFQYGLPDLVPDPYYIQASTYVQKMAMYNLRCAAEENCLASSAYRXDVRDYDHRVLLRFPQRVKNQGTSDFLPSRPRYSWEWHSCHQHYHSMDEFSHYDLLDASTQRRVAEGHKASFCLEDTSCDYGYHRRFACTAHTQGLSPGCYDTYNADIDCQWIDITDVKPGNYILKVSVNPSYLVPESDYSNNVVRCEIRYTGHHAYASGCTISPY
Protocol: 1. Purification partielle de la lysyl-oxydase d'aorte bovine
Ce protocole est inspiré de celui de (WILLIAMS et KAGAN, Anal. Biochem. 149, 430-437, 1985), et de (KAGAN et al. Biochem. J. 177, 203-214 (1979)), qui a été sensiblement modifié.
Toutes les étapes sont effectuées à 4 °C ou dans la glace.
De l'aorte bovine foetale broyée est rincée par du tampon NaCI 0,12M, NaPi 16 mM, pH 7,7 puis par du NaPi 16 mM, pH 7,7 (tampon PB). La lysyl oxydase est extraite du résidu par de l'urée 4 M (concentration finale dans le tampon PB). Le surnageant obtenu après centrifugation à 10.000 g pendant 30 minutes est dilué deux fois dans du PB puis incubé avec de la DEAE-cellulose pendant 3 heures. La résine est mise en colonne et rincée successivement par du tampon PB contenant de l'urée 2M , du tampon PB puis du tampon PB contenant du NaCI 0,4 M.
La lysyl oxydase est éluée à partir de la DEAE-cellulose par de l'urée 6M dans du tampon PB. Les fractions présentant une absorbance à 280 nm sont réunies et dialysées pendant une nuit contre du tampon PB en présence de gel de Bleu de Cibacron (Biorad). Le gel est ensuite mis en colonne, et après des rinçages successifs par du tampon PB, du tampon PB-NaCI 1M et à nouveau du tampon PB, la lysyl oxydase est éluée du gel de Bleu de Cibacron par de l'urée 6 M dans du tampon PB. […]

lysyl oxydase = target: T2, lysyl oxydase (Homo sapiens, UniProt P28300); details: specific lysyl oxidase inhibitor described in the literature (Kagan, 1994); cited from earlier work
T2 sequence (P28300 169-417): T1 sequence (P33072 170-418) with T10S, S29G, P49A, A64S, S80T, X84A, S142N, N188G, S224T, E231D

| SMILES | IC50 [1] [µM] | Ki (lysyl oxydase) [µM] |
| --- | --- | --- |
| O=S(=O)(O)c1cc2c(O)c(c1)Cc1cc(S(=O)(=O)O)cc(c1O)Cc1cc(S(=O)(=O)O)cc(c1O)Cc1cc(S(=O)(=O)O)cc(c1O)Cc1cc(S(=O)(=O)O)cc(c1O)Cc1cc(S(=O)(=O)O)cc(c1O)C2 | 1200 |  |
| N#CCCN [βAPN, β amino-propionitrile] |  | 6 |
